For this data set, the target named is ATP-dependent translocase ABCB1 (Mus musculus, UniProt P21447). Briefly: TP_TRANSPORTER: in situ brain perfusion in mdr1a(-/-) mouse. Format: functional, organism-based. The conditions noted are these: in vivo.

SMILES strings stand for the structures.

Sequence of ATP-dependent translocase ABCB1 (P21447 whole entry, the tested form may be a part): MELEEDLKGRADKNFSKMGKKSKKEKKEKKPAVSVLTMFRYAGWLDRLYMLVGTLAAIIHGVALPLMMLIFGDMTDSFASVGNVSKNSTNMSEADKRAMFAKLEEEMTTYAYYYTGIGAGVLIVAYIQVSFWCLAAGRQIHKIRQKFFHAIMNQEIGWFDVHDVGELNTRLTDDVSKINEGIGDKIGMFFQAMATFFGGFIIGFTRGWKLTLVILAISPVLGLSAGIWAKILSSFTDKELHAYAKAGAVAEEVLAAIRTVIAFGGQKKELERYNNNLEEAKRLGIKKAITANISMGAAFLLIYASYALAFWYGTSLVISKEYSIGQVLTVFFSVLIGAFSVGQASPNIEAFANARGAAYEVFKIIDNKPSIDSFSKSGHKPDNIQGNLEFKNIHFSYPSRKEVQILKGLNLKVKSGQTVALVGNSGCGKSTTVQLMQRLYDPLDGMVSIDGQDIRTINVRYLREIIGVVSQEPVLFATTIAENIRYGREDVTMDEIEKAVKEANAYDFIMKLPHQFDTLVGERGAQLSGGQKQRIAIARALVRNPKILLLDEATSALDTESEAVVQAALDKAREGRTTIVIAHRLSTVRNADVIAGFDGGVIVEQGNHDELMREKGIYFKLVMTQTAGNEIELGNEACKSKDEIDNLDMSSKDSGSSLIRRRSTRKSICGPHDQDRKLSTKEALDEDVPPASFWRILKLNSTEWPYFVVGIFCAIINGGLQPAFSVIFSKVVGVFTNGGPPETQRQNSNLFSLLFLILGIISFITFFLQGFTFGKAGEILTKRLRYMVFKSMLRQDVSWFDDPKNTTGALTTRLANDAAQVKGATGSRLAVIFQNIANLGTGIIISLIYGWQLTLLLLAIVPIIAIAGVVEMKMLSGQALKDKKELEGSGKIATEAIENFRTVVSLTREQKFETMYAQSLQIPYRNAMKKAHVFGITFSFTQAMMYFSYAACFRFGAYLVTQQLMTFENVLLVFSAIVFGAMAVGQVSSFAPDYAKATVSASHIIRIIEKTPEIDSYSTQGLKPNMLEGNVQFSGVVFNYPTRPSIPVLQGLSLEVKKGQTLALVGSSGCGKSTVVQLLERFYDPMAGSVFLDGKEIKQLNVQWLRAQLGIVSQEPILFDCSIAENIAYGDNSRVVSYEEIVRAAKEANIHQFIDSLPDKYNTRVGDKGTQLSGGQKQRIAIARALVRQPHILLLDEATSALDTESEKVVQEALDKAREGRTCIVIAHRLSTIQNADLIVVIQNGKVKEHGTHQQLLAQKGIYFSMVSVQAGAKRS

For `CC1(C)SSC(C)(C)[C@@H](NC(=O)[C@@H](N)Cc2ccc(O)cc2)C(=O)NCC(=O)N[C@@H](Cc2ccccc2)C(=O)N[C@H]1C(=O)O`, the Activity result was “substrate [+]”.

The record behind these values is ChEMBL document CHEMBL2074509, “Uptake and efflux of the peptidic delta-opioid receptor agonist” (Neurosci Lett, 2001).
